Results taken from patent US7544664B2, “Sequences facilitating penetration of a substance of interest” (priority 2003, dated 2009).
Where two headings read alike, the source gives them in different places. Where a SMILES comes first, the peptide text is derived from it. The star is where a group is joined. X1 = C[C@@H]1[C@H](O)[C@@H](C)/C=C/C=C/C=C/C=C/C=C/C=C/C=C/[C@H](O[C@@H]2O[C@H](C)[C@@H](O)[C@H](NC(=O)CCCCCN3C(=O)CC(*)C3=O)[C@@H]2O)C[C@@H]2O[C@](O)(C[C@@H](O)C[C@@H](O)[C@H](O)CC[C@@H](O)C[C@@H](O)CC(=O)O[C@H]1C)C[C@H](O)[C@H]2C(=O)O; X2 = O=C(CCCCCN1C(=O)CC(*)C1=O)OCCOC(=O)CCCc1ccc(N(CCCl)CCCl)cc1

Experiments:
[1] = system: HCT116: human colon carcinoma; assay: cells; format: cell-based; details: for IC50: read-out: IC50 values; for more efficient than Chl: HCT116 colon carcinoma
Procedure: HCT116: human colon carcinoma (origin: ATCC #CCL-247)
(§1) Viability assays were performed. Briefly, cells are seeded in 96-well plates and incubated with increasing concentrations of drugs (i) for 1 hour then cells are rinsed and incubated with fresh medium without drugs for 48 hours, or (ii) for 48 hours. A WST-1 test (from Roche) was performed and IC50 values (drug concentration that inhibits 50% of cell viability) were estimated from sigmoidal regressions.
(§2) DPV15-E-Chl conjugate was compared to non-conjugated Chl and 5FUra for the inhibition of in vitro cell proliferation of human carcinoma and leukemia cells. We calculated IC50 values=drug concentration that inhibits 50% of cell viability.

[2] = system: HT29: human colon carcinoma; assay: cells; format: cell-based; details: for IC50: read-out: IC50 values
Procedure: HT29: human colon carcinoma, low P-gp expression (origin: ATCC #HTB-38)
as §1, §2

[3] = Stability in H2O+0.1% TFA overnight at room temperature; format: physicochemical; details: protected from light, Chl 0.1 mg/ml, DPV15-E-Chl 0.5 mg/ml in H2O+0.1% TFA
Procedure: After overnight incubation at room temperature and protected from light, both Chl (0.1 mg/ml in H2O+0.1% TFA) and DPV15-E-Chl (0.5 mg/ml in H2O+0.1% TFA) are degraded (50% degradation).

[4] = system: K562: human chronic myelogenous leukemia; assay: Viability assay (WST-1); format: cell-based
Procedure: K562: human chronic myelogenous leukemia (CML) (origin: ATCC #CCL-243).
as §1, §2

[5] = Solubility in water / aqueous solutions
[6] = Single dose toxicity, intravenous injection; format: in vivo, mice
Procedure: The single dose toxicity of the DPV15-AmB conjugate was assessed by mortality and/or body weight loss after a single dose intravenous injection. Mice were treated with DPV15-AmB 2.57, 3.68, 5.52, 7.36, 9.2, 18.4 and 36.8 mg/kg with vehicle (NaCl/H2O 9/1 v/v). These different doses correspond to 0.7, 1, 1.5, 2, 2.5, 5 and 10 mg/kg of AMB respectively. The dose of 1 mg/kg corresponds to the MTD of AmB exposed in the literature (Tabosa Do Egito et al., In-vitro and In-vivo evaluation of a new amphothericin B emulsion-based delivery system. J Antimicrob Vhemother. 1996 September; 38(3):485-97).

[7] = system: Candida albicans (ATCC 90028); assay: Lethal murine candidiasis model; format: in vivo, mice; details: single i.v. 3 hours after inoculation
Procedure: Test substances (DPV15-AmB and AmB (Fungizone)) and vehicule control were administrated i.v. with doses ranging from 0.25 mg/kg to 2.5 mg/kg AmB equivalent to test animals 3 hours after the fungal inoculation. Mortality was recorded once daily for 8 days.

[8] = system: HCT116 human colorectal carcinoma; assay: In vivo anti-tumor activity of DPV7b-doxorubicin conjugate; design: species or system Nude mice; details: Table 15, Q2D3×3W
Procedure: Nude mice are injected with 10^7 HCT116 cells (HCT116 human colorectal carcinoma cell line) intradermically in the right flank. Treatments were performed on established solid tumors (tumors size is about 80 to 90 mm^3) at Day 3. Mice were randomized in different groups (equivalent tumors size), 6 mice by group.

[9] = system: OVCAR-3: human ovary carcinoma; assay: cells; format: cell-based; details: Homo sapiens; OVCAR-3 ovary carcinoma; 1 h incubation + 72 h post-incubation
Procedure: OVCAR-3: human ovary carcinoma (origin: ATCC #HTB-161)
(§3) Viability assays were performed. Briefly, cells are seeded in 96-well plates and incubated with increasing concentrations of drugs for 1 hour then cells are rinsed and incubated with fresh medium without drugs for 72 hours. A WST-1 test (from Roche) was performed and IC50 values (drug concentration that inhibits 50% of cell viability) were estimated from sigmoidal regressions.
(§4) We tested the inhibition of in vitro cell proliferation of human carcinoma cells, and we calculated IC50 values=drug concentration that inhibits 50% of cell viability.

[10] = system: HCT116 human colorectal carcinoma; assay: In vivo anti-tumor activity, first experiment (DPV15-doxorubicin); design: species or system nude mice; details: Table 13, Q2D3×3W
Procedure: (§5) Mice: Athymic (nu/nu) nude mice, female, NMRI-nu (nu/nu)-Nude Tumor model: HCT116 human colorectal carcinoma (ATCC Number: CCl-247) Experiment has been performed on tumor-bearing mice. The HCT116 tumors have been established by intradermal injection of 100 μl of the cell suspension (10^7 cells/0.1 mL) on the right flank of the mouse. […] After complete dissolution a solution of 0.9% NaCl for injection (Cooper) 0.9% was added.

[11] = system: HCT116 human colorectal carcinoma; assay: In vivo anti-tumor activity, second experiment (DPV15b-doxorubicin); design: species or system nude mice; details: Q2D3×3W
Procedure: as §5

[12] = system: NCI-H1299: human non small cell lung carcinoma; assay: cells; format: cell-based; details: Homo sapiens, NCI-H1299; H1299 NSCLC; 1 h incubation + 72 h post-incubation
Procedure: NCI-H1299: human non small cell lung carcinoma (NSCLC) (origin: ATCC #CRL-5803)
as §3, §4

HeLa cells = assay: Poly-L-Lys inhibition of the internalization of DPV-PO conjugates; format: cell-based; details: inhibition of DPV-PO internalization (25 μg/ml, 4 h) in HeLa cells
Procedure: In order to verify this hypothesis, we tested the inhibition of DPV-PO internalization in HeLa cells in the presence of Poly-L-Lysine in the incubation medium: positively charged poly-L-Lys should bind to the negative charges of the cell surface, and prevent the binding of DPVs.
HeLa cells cultivated on glass labtek slides for 24 hours were pre-incubated with the indicated concentrations of poly-L-Lys for 1 hour at 37° C. Cells were then incubated for 4 hours in the presence of DPV-PO conjugates at 25 μg/ml in cell culture medium containing the same quantity of poly-L-Lys. Internalized PO was quantified after extensive treatment with trypsin to eliminate surface bound material, and subsequent cell lysis. Results are given in picogram PO per 1000 cells.

[13] = HCT116 colon, 1 h incubation + 48 h
[14] = HT29 colon, 1 h incubation + 48 h
[15] = HT29 colon carcinoma, short exposure

For O=c1[nH]cc(F)c(=O)[nH]1 [5FUra], the IC50 [1, 13] was 113 ± 40 µM, the IC50 ([1]; HCT116 colon, 48 h incubation) was 8.5 ± 7.9 µM and the IC50 [2, 14] was over 1000 µM. It also gave an IC50 ([2]; HT29 colon, 48 h incubation) of 725 ± 388 µM.

For O=C(O)CCCc1ccc(N(CCCl)CCCl)cc1 [Chl, Chlorambucil], the IC50 ([1]; Homo sapiens, HCT-116, 48 h) was 200 ± 70 µM, the “degradation after overnight incubation” value [3] was 50% and the IC50 ([4]; Homo sapiens, 1 h incubation + 48 h) was over 500 µM. The IC50 ([4]; Homo sapiens, 48 h incubation) was 250 ± 70 µM, the “Solubility in water / aqueous solutions” value [5] was “not soluble” and the IC50 ([2]; Homo sapiens, HT-29, 48 h) was 250 ± 70 µM.

For CC(C)C[C@H](NC(=O)[C@H](CCCNC(=N)N)NC(=O)[C@H](CO)NC(=O)[C@H](CCC(N)=O)NC(=O)[C@H](CCCNC(=N)N)NC(=O)[C@H](CCC(=O)O)NC(=O)[C@H](CCCNC(=N)N)NC(=O)[C@H](CCCNC(=N)N)NC(=O)[C@@H](N)CC(C)C)C(=O)N[C@@H](CCCNC(=N)N)C(=O)N[C@@H](CCCNC(=N)N)C(=O)N[C@@H](CCC(=O)O)C(=O)N[C@@H](CCCNC(=N)N)C(=O)N[C@@H](CCC(N)=O)C(=O)N[C@@H](CO)C(=O)N[C@@H](CCCNC(=N)N)C(=O)N[C@@H](CSC1CC(=O)N(CCCCCC(=O)N[C@@H]2[C@H](O)[C@H](O[C@H]3/C=C/C=C/C=C/C=C/C=C/C=C/C=C/[C@H](C)[C@@H](O)[C@@H](C)[C@H](C)OC(=O)C[C@H](O)C[C@H](O)CC[C@@H](O)[C@H](O)C[C@H](O)C[C@]4(O)C[C@H](O)[C@@H](C(=O)O)[C@H](C3)O4)O[C@H](C)[C@H]2O)C1=O)C(=O)O (stereo partly shown) [DPV15-AmB] (H-LRRERQSRLRRERQSRC(X1)-OH), the mortality ([6]; 18.4 mg/kg, 24 hours after the injection) was 1 mouse was found dead, the “loss of initial body weight” value ([6]; 18.4 mg/kg, two surviving mice, 24 hours after the injection) was “about 12%” and the Acute lethal toxicity ([6]; 36.8 mg/kg (10 mg/kg of AMB), single i.v.) was “observed”. For the same compound, the “effect on the body weight at Day 28” value ([6]; 2.57, 3.68, 5.52, 7.36 and 9.2 mg/kg, single i.v.) was “no effect”, the MTD at 28 day ([6]; mouse, in vivo, iv, single i.v., conjugate dose, read-out: maximal tolerated dose) was 9.2 to 18.4 mg/kg and the “survival on day 8” value ([7]; 0.5 mg/kg AmB equivalent) was 50%. The “survival on day 8” value ([7]; 1 mg/kg AmB equivalent) was 50%.

For CC(C)C[C@H](NC(=O)[C@H](CCCNC(=N)N)NC(=O)[C@H](CO)NC(=O)[C@H](CCC(N)=O)NC(=O)[C@H](CCCNC(=N)N)NC(=O)[C@H](CCC(=O)O)NC(=O)[C@H](CCCNC(=N)N)NC(=O)[C@H](CCCNC(=N)N)NC(=O)[C@@H](N)CC(C)C)C(=O)N[C@@H](CCCNC(=N)N)C(=O)N[C@@H](CCCNC(=N)N)C(=O)N[C@@H](CCC(=O)O)C(=O)N[C@@H](CCCNC(=N)N)C(=O)N[C@@H](CCC(N)=O)C(=O)N[C@@H](CO)C(=O)N[C@@H](CCCNC(=N)N)C(=O)N[C@@H](CSC1CC(=O)N(CCCCCC(=O)OCCOC(=O)CCCc2ccc(N(CCCl)CCCl)cc2)C1=O)C(=O)O (stereo partly shown) [DPV15-E-Chl] (H-LRRERQSRLRRERQSRC(X2)-OH), the “more efficient than Chl” value ([1]; long exposure) was 8 fold, the “more efficient than Chl” value ([1]; short exposure) was 12 fold and the IC50 [1, 13] was 43 ± 15 µM. For the same compound, the IC50 ([1]; HCT116 colon, 48 h incubation) was 25 ± 7 µM, the “degradation after overnight incubation” value [3] was 50% and the IC50 ([4]; 1 h incubation + 48 h) was 30 µM. For the same compound, the IC50 ([4]; 48 h incubation) was 30 µM, the “more efficient than Chl” value ([4]; long exposure) was 8 fold and the “more efficient than Chl” value ([4]; short exposure) was at least 16 fold. The solubility [5] was at least 10000 µg/mL, the “more efficient than 5FUra” value [2, 15] was at least 17 fold and the “more efficient than Chl” value [2, 15] was 11 fold. It also gave an IC50 [2, 14] of 60 µM and an IC50 ([2]; HT29 colon, 48 h incubation) of 325 µM.

With COc1cccc2c1C(=O)c1c(O)c3c(c(O)c1C2=O)C[C@@](O)(C(=O)CO)C[C@@H]3O[C@H]1C[C@H](N)[C@H](O)[C@H](C)O1 [Doxorubicin] the “Tumor doubling time” value ([8]; 3.5 μmol/kg i.v.) was 10.2 days, the “Tumor growth delay” value ([8]; 3.5 μmol/kg i.v.) was 21.20 days and the “Tumor growth delay” value ([8]; 5 μmol/kg i.v.) was 26.40 days. The “Tumor doubling time” value ([8]; 6.5 μmol/kg i.v.) was 22.9 days, the “Tumor growth delay” value ([8]; 6.5 μmol/kg i.v.) was 35.29 days and the IC50 [9] was 7.3 ± 4.2 µM. The “Tumor doubling time” value ([10]; 3.5 μmol/kg i.v.) was 10.20 days, the “Tumor growth delay” value ([10]; 3.5 μmol/kg i.v.) was 21.20 days and the “Tumor growth delay” value ([10]; 5 μmol/kg i.v.) was 26.40 days. The “Tumor doubling time” value ([10]; 6.5 μmol/kg i.v.) was 22.90 days, the “Tumor growth delay” value ([10]; 6.5 μmol/kg i.v.) was 35.29 days and the “mice body weight loss” value ([11]; 7 μmol/kg i.v.) was over 20%. The “Tumor growth delay” value ([11]; Table 14, 5 μmol/kg i.v.) was 27.86 days, the “Tumor growth delay” value ([11]; Table 14, 6 μmol/kg i.v.) was 29.98 days and the “Tumor doubling time” value ([11]; Table 14, 7 μmol/kg i.v.) was 13.38 days. For the same compound, the “Tumor growth delay” value ([11]; Table 14, 7 μmol/kg i.v.) was 35.16 days and the IC50 [12] was 0.62 ± 0.32 µM.

For CC(=O)O[C@H]1C(=O)[C@@]2(C)[C@H]([C@H](OC(=O)c3ccccc3)[C@]3(O)C[C@H](OC(=O)[C@H](O)[C@@H](NC(=O)c4ccccc4)c4ccccc4)C(C)=C1C3(C)C)[C@]1(OC(C)=O)CO[C@@H]1C[C@@H]2O [Paclitaxel (Hauser), Paclitaxel], the IC50 [9] was 0.04 ± 0.02 µM, the “Solubility in water / aqueous solutions” value [5] was “not soluble” and the IC50 [12] was 0.23 ± 0.17 µM.

For Poly-L-Lysine, the “IC50 (concentration at which 50% of the maximum internalization is achieved)” value (HeLa cells) was “around 25 μg/ml”.
